Assay: Inhibition of malathion-induced apoptosis in goat testicular germ cells assessed as cell survival at 10 uM (malathion treated control = 41 +/- 6.24%)
Format: functional
Conditions: Capra hircus; read-out: Survival

Row | SMILES | viability at 10 µM [%]
1 | NS(=O)(=O)c1ccc2c(c1)sc1nc(-c3ccccc3)cn12 | 50
2 | Cc1ccc(-c2cn3c(n2)sc2cc(S(N)(=O)=O)ccc23)cc1 | 64
3 | NS(=O)(=O)c1ccc2c(c1)sc1nc(-c3ccc(F)cc3)cn12 | 43
4 | NS(=O)(=O)c1ccc2c(c1)sc1nc(-c3ccc(Cl)cc3)cn12 | 56
5 | NS(=O)(=O)c1ccc2c(c1)sc1nc(-c3ccc(Br)cc3)cn12 | 52
6 | NS(=O)(=O)c1ccc2c(c1)sc1nc(-c3ccc([N+](=O)[O-])cc3)cn12 | 39
7 | NS(=O)(=O)c1ccc2c(c1)sc1nc(-c3cc4ccccc4oc3=O)cn12 | 46
8 | NS(=O)(=O)c1ccc2c(c1)sc1nc(-c3cc4cc(Cl)ccc4oc3=O)cn12 | 61
9 | NS(=O)(=O)c1ccc2c(c1)sc1nc(-c3cc4cc(Br)ccc4oc3=O)cn12 | 48
10 | CCOC(=O)CC(SP(=S)(OC)OC)C(=O)OCC (stereo not given) [MALATHION] | 41

From ChEMBL document CHEMBL2311480, “Inhibitors of apoptosis in testicular germ cells: synthesis and biological evaluation of some novel IBTs bearing sulfonamide moiety” (2013)
